From PMC8349443 (Journal of the Indian Chemical Society, 2021)

Key:
[1] = tested on: plasma C-Reactive Protein (CRP) and procalcitonin; conditions: ref [7], [8], [9]; cited from earlier work
SARS-CoV-2 virus = assay: Antiviral potentiality against SARS-CoV-2; assay type: cell-based; conditions: isolate of SARS-CoV-2

## N[C@@H](CC(=O)N1CCn2c(nnc2C(F)(F)F)C1)Cc1cc(F)c(F)cc1F [SIT, Sitagliptin]
[1]
  possible immuno-modulatory effect: plasma CRP and procalcitonin: plasma C-Reactive Protein (CRP) and procalcitonin reduction
SARS-CoV-2 virus
  antiviral activity against SARS-CoV-2 in words: have antiviral activity against an isolate of SARS-CoV-2
